Measured values reported in US9321747B2, “Acid addition salt of substituted pyridine compound” (DAIICHI SANKYO COMPANY, LIMITED, priority 2012, dated 2016).
Counter-ions that a name gives are not always drawn.

Molecular target: recombinant human CETP protein (Homo sapiens (Human), UniProt P11597)
Assay: Test of CETP inhibition activity (in vitro, buffer-based)
Type: biochemical
Settings: [14C]-cholesteryl ester transfer from reconstituted HDL to acceptor lipoprotein, 37° C., 60 minutes, PBS buffer
Procedure: Test of CETP Inhibition Activity (In Vitro, Buffer-Based)
(1) Preparation of Reconstituted HDL
Cholesterol (1.125 μmol), phosphatidyl choline (4.5 μmol) and [^14C]-labeled cholesteryl ester (2.0 μCi; 40 μl) were taken in a glass test tube and well mixed with a vortex, and dried under a nitrogen gas current so that it formed a thin film. The obtained mixture was dissolved in ethanol (200 μl), which was designated as Solution A. A PBS solution [a mixed solution of Na2HPO4 (30 mM), KH2PO4 (8.8 mM), NaCl (60 mM) and EDTA (pH 7.4; 0.67 mM); 4 ml] was taken in a tube and the reaction solution was vigorously stirred with a vortex under a nitrogen current. The above-described Solution A was gently injected into this mixture with a syringe and the reaction solution was vigorously stirred with a vortex for 5 minutes under a nitrogen current. Sodium cholate (200 mM; 0.38 ml) was added to the obtained mixture and the reaction solution was stirred for 2 minutes. ApoA-I protein (3 mg) was added to the obtained mixture and the reaction solution was stirred for 2 minutes. The obtained mixture was adjusted to 5 ml with the PBS solution and then dialyzed with the PBS solution. The obtained mixture was designated as the reconstituted HDL.
(2) Preparation of Acceptor Lipoprotein
NaBr was added to the plasma of a healthy person and the density of the mixture was adjusted to 1.019, and the mixture was subjected to density gradient centrifugation (40000 rpm, for 16 hours) to remove the fraction having a density of less than 1.019. NaBr was added to the obtained mixture and the density of the solution was adjusted to 1.063, and the solution was subjected to density gradient centrifugation (40000 rpm, 18 hours) to provide the fraction consisting of IDL (intermediate density lipoprotein) and LDL (1.019<density<1.063). The obtained fraction was dialyzed with the PBS solution. The obtained mixture was designated as the acceptor lipoprotein.
(3) Measurement of CETP Inhibition Activity
A recombinant human CETP protein (manufactured by Roar Biomedical Inc.; 4.5 ng), the acceptor lipoprotein described in (2) above (32.5 μg) and 5,5′-dithio-bis-(2-nitrobenzoic acid) (7 mM, 15 μl) were taken in a 96 well plate and the total amount of the mixture was adjusted to 48.5 μl with the PBS solution. The test compound [DMSO solution (concentration: 0.15, 0.5, 1.5, 5, 15, 50, 150 and 500 μM); 1.5 μl] was added to each well and the mixture was incubated in a thermostatic bath at 37° C. for 60 minutes. The reconstituted HDL (50 μl) described in (1) above was added to each well and the mixture was reacted in a thermostatic bath at 37° C. for 60 minutes. The 96 well plate was moved onto ice and a precipitation reagent [a mixed solution of magnesium chloride (60 mM) and 0.1% dextran sulfate[1/1(v/v)]; 15 μl] was added to each well, and then the mixture was allowed to stand on ice for 15 minutes. The reaction solution (80 μl) in each well was moved to a filter plate and centrifuged at 1500 rpm for 1 minute, and the filtrate which passed through the filter was designated as the HDL fraction and the radioactivity thereof was measured with a scintillation counter. The percentage decrease in radioactivity in the case where the test compound was added in comparison with that in case where the test compound was not added was designated as the percentage CETP inhibition. The IC50 value was calculated from the percentage CETP inhibition.

recombinant human CETP protein, sequence (P11597 18-493): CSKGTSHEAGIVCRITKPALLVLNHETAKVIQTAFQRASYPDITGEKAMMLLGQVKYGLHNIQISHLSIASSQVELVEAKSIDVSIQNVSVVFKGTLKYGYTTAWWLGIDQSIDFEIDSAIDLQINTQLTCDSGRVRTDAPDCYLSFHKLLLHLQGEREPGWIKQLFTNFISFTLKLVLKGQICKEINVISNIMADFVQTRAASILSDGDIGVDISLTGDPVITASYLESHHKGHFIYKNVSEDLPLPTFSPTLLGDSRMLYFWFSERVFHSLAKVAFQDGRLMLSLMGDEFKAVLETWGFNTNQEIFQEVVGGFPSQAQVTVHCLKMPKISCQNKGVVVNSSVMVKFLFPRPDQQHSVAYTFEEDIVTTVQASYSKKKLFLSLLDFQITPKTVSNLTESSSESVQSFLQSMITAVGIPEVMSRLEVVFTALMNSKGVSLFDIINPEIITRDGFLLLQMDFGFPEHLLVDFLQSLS

SMILES	IC50 (dihydrochloride) [nM]	IC50 [nM]	other results
CC1(C)Cc2nc(C3CCN(c4ncc(OCC(CO)CO)cn4)CC3)c([C@@H](F)c3ccc(C(F)(F)F)cc3)c(C3CCC(F)(F)CC3)c2[C@@H](O)C1 [Example 1, (5S)-4-(4,4-Difluorocyclohexyl)-3-{(S)-fluoro[4-(trifluoromethyl)phenyl]methyl}-2-(1-{5-[3-hydroxy-2-(hydroxymethyl)propoxy]pyrimidin-2-yl}piperidin-4-yl)-7,7-dimethyl-5,6,7,8-tetrahydr oquinolin-5-ol dihydrochloride]	35.2	–	–
CC1(C)Cc2nc(C3CCN(c4ncc(OCC(CO)CO)cn4)CC3)c([C@@H](F)c3ccc(C(F)(F)F)cc3)c(C3CCC(F)(F)CC3)c2[C@@H](O)C1 [Example 2, (5S)-4-(4,4-Difluorocyclohexyl)-3-{(S)-fluoro[4-(trifluoromethyl)phenyl]methyl}-2-(1-{5-[3-hydroxy-2-(hydroxymethyl)propoxy]pyrimidin-2-yl}piperidin-4-yl)-7,7-dimethyl-5,6,7,8-tetrahydroquinolin-5-ol dihydrobromide]	–	30.8	–
CC1(C)Cc2nc(C3CCN(c4ncc(OCC(C)(CO)CO)cn4)CC3)c([C@@H](F)c3ccc(C(F)(F)F)cc3)c(C3CCC(F)(F)CC3)c2[C@@H](O)C1 [Example 3, (5S)-4-(4,4-Difluorocyclohexyl)-3-{(S)-fluoro[4-(trifluoromethyl)phenyl]methyl}-2-(1-{5-[3-hydroxy-2-(hydroxymethyl)-2-methylpropoxy]pyrimidin-2-yl}piperidin-4-yl)-7,7-dimethyl-5,6,7,8-tetrahydroquinolin-5-ol dihydrobromide]	–	–	IC50 (dihydrobromide): 39.3 nM
CC1(C)Cc2nc(C3CCN(c4ncc(OCC(C)(CO)CO)cn4)CC3)c([C@@H](F)c3ccc(C(F)(F)F)cc3)c(C3CCC(F)(F)CC3)c2[C@@H](O)C1 [Example 4, (5S)-4-(4,4-Difluorocyclohexyl)-3-{(S)-fluoro[4-(trifluoromethyl)phenyl]methyl}-2-(1-{5-[3-hydroxy-2-(hydroxymethyl)-2-methylpropoxy]pyrimidin-2-yl}piperidin-4-yl)-7,7-dimethyl-5,6,7,8-tetrahydroquinolin-5-ol dihydrochloride]	22.3	–	–
CC1(C)Cc2nc(C3CCN(c4ncc(OCC(C)(CO)CO)cn4)CC3)c([C@@H](F)c3ccc(C(F)(F)F)cc3)c(C3CCC(F)(F)CC3)c2[C@@H](O)C1 [Example 5, (5S)-4-(4,4-Difluorocyclohexyl)-3-{(S)-fluoro[4-(trifluoromethyl)phenyl]methyl}-2-(1-{5-[3-hydroxy-2-(hydroxymethyl)-2-methylpropoxy]pyrimidin-2-yl}piperidin-4-yl)-7,7-dimethyl-5,6,7,8-tetrahydroquinolin-5-ol methanesulfonate]	–	28.5	–
CC(C)(O)CCOc1cnc(N2CCC(c3nc4c(c(C5CCC(F)(F)CC5)c3[C@@H](F)c3ccc(C(F)(F)F)cc3)[C@@H](O)CC(C)(C)C4)CC2)nc1 [Example 8, (5S)-4-(4,4-Difluorocyclohexyl)-3-{(S)-fluoro[4-(trifluoromethyl)phenyl]methyl}-2-{1-[5-(3-hydroxy-3-methylbutoxy)pyrimidin-2-yl]piperidin-4-yl}-7,7-dimethyl-5,6,7,8-tetrahydroquinolin-5-ol disuccinate]	–	–	IC50 (disuccinate): 22.7 nM
CC(C)(O)CCOc1cnc(N2CCC(c3nc4c(c(C5CCC(F)(F)CC5)c3[C@@H](F)c3ccc(C(F)(F)F)cc3)[C@@H](O)CC(C)(C)C4)CC2)nc1 [Example 9, (5S)-4-(4,4-Difluorocyclohexyl)-3-{(S)-fluoro[4-(trifluoromethyl)phenyl]methyl}-2-{1-[5-(3-hydroxy-3-methylbutoxy)pyrimidin-2-yl]piperidin-4-yl}-7,7-dimethyl-5,6,7,8-tetrahydroquinolin-5-ol benzenesulfonate]	–	11.6	–
CC(C)(O)CCOc1cnc(N2CCC(c3nc4c(c(C5CCC(F)(F)CC5)c3[C@@H](F)c3ccc(C(F)(F)F)cc3)[C@@H](O)CC(C)(C)C4)CC2)nc1 [Example 10, (5S)-4-(4,4-Difluorocyclohexyl)-3-{(S)-fluoro[4-(trifluoromethyl)phenyl]methyl}-2-{1-[5-(3-hydroxy-3-methylbutoxy)pyrimidin-2-yl]piperidin-4-yl}-7,7-dimethyl-5,6,7,8-tetrahydroquinolin-5-ol maleate]	–	–	IC50 (maleate): 13 nM
CC(C)(O)CCOc1cnc(N2CCC(c3nc4c(c(C5CCC(F)(F)CC5)c3[C@@H](F)c3ccc(C(F)(F)F)cc3)[C@@H](O)CC(C)(C)C4)CC2)nc1 [Example 11, (5S)-4-(4,4-Difluorocyclohexyl)-3-{(S)-fluoro[4-(trifluoromethyl)phenyl]methyl}-2-{1-[5-(3-hydroxy-3-methylbutoxy)pyrimidin-2-yl]piperidin-4-yl}-7,7-dimethyl-5,6,7,8-tetrahydroquinolin-5-ol hemifumarate]	–	28.9	–
CC1(C)Cc2nc(C3CCN(c4ncc(OC[C@@H](O)CO)cn4)CC3)c([C@@H](F)c3ccc(C(F)(F)F)cc3)c(C3CCC(F)(F)CC3)c2[C@@H](O)C1 [Example 13, (5S)-4-(4,4-Difluorocyclohexyl)-2-[1-(5-{[(2S)-2,3-dihydroxypropyl]oxy}pyrimidin-2-yl)piperidin-4-yl]-3-{(S)-fluoro[4-(trifluoromethyl)phenyl]methyl}-7,7-dimethyl-5,6,7,8-tetrahydroquinolin-5-ol dihydrochloride]	58.4	–	–
CC1(C)Cc2nc(C3CCN(c4ncc(OC[C@@H](O)CO)cn4)CC3)c([C@@H](F)c3ccc(C(F)(F)F)cc3)c(C3CCC(F)(F)CC3)c2[C@@H](O)C1 [Example 14, (5S)-4-(4,4-Difluorocyclohexyl)-2-[1-(5-{[(2S)-2,3-dihydroxypropyl]oxy}pyrimidin-2-yl)piperidin-4-yl]-3-{(S)-fluoro[4-(trifluoromethyl)phenyl]methyl}-7,7-dimethyl-5,6,7,8-tetrahydroquinolin-5-ol dihydrobromide]	–	38.2	–
CC1(C)Cc2nc(C3CCN(c4ncc(OC[C@H](O)CO)cn4)CC3)c([C@@H](F)c3ccc(C(F)(F)F)cc3)c(C3CCC(F)(F)CC3)c2[C@@H](O)C1 [Example 15, (5S)-4-(4,4-Difluorocyclohexyl)-2-[1-(5-{[(2R)-2,3-dihydroxypropyl]oxy}pyrimidin-2-yl)piperidin-4-yl]-3-{(S)-fluoro[4-(trifluoromethyl)phenyl]methyl}-7,7-dimethyl-5,6,7,8-tetrahydroquinolin-5-ol dihydrochloride]	38	–	–
CC1(C)Cc2nc(C3CCN(c4ncc(OC[C@H](O)CO)cn4)CC3)c([C@@H](F)c3ccc(C(F)(F)F)cc3)c(C3CCC(F)(F)CC3)c2[C@@H](O)C1 [Example 16, (5S)-4-(4,4-Difluorocyclohexyl)-2-[1-(5-{[(2R)-2,3-dihydroxypropyl]oxy}pyrimidin-2-yl)piperidin-4-yl]-3-{(S)-fluoro[4-(trifluoromethyl)phenyl]methyl}-7,7-dimethyl-5,6,7,8-tetrahydroquinolin-5-ol dihydrobromide]	–	28.5	–
CC1(C)Cc2nc(C3CCN(c4ncc(OCCCS(C)(=O)=O)cn4)CC3)c([C@@H](F)c3ccc(C(F)(F)F)cc3)c(C3CCC(F)(F)CC3)c2[C@@H](O)C1 [Example 17, (5S)-4-(4,4-Difluorocyclohexyl)-3-{(S)-fluoro[4-(trifluoromethyl)phenyl]methyl}-7,7-dimethyl-2-(1-{5-[3-(methylsulfonyl)propoxy]pyrimidin-2-yl}piperidin-4-yl)-5,6,7,8-tetrahydroquinolin-5-ol dihydrochloride]	10	–	–
